We go through 14 molecules from patent US8642770B2, “Indole derivative” (Takeda Pharmaceutical Company Limited, priority 2010, dated 2014).

Structures are written as SMILES.

Series [1] has as its target T1, human MCHR1 (Homo sapiens, UniProt Q99705).
T1 construct: expressed in transfected cells; host or cells: CHO cell clone 57 (membrane fraction)
The experiment in a line: Human MCH receptor 1 (MCHR1) competitive binding assay, [125I]-MCH(4-19), CHO cell membrane fraction. Particulars: test compound 0.1 μM, human MCHR1-expressing CHO cell membrane, 25° C., 1 hr, read-out: Binding inhibition rate (0.1 μM). The protocol: Determination of Human MCH Receptor 1 (MCHR1) Competitive Inhibitory Activity of Test Compound Using Binding Assay
Using human MCHR1(=SLC-1 receptor)-expressing CHO cell clone 57 and rat MCHR1-expressing CHO cell clone 44 described in WO01/82925, MCHR1-expressing CHO cellular membrane fractions were prepared by the following method. In phosphate buffered saline (pH 7.4) supplemented with 5 mM EDTA (ethylenediaminetetraacetic acid) were respectively suspended human and rat MCHR1-expressing CHO cells (1×10^8 cells) and centrifuged. Homogenate buffer (10 mL, 10 mM NaHCO3, 5 mM EDTA, pH 7.5, 0.5 mM PMSF (phenylmethylsulfonyl fluoride), 20 mg/L leupeptin, 4 mg/L E-64, 1 mg/L pepstatin A) was added to the pellets of the cells and, using Polytron Homogenizer, the mixture was homogenated. The supernatant obtained after centrifugation at 400×g for 10 min was further centrifuged at 100,000×g for 1 hr to give precipitate of the membrane fraction. The precipitate were suspended in 2 mL of assay buffer [20 mM Tris-HCl (pH 7.5), 5 mM EDTA, 0.5 mM PMSF, 20 mg/L leupeptin, 4 mg/L E-64, 1 mg/L pepstatin A]. The membrane fractions were suspended in assay buffer to a protein concentration of 2 mg/mL, and after dispensing, preserved at −80° C. and used upon thawing each time when in use.
The MCHR1 ligand binding inhibitory activity of the test compound was determined as follows. An MCHR1-expressing CHO cellular membrane fraction (175 μL) diluted with an assay buffer was dispensed to a 96 well polypropylene plate (3363, Corning). DMSO solution (2 μL), 100 μm cold MCH(1-19) diluted with DMSO solution (2 μL), or a test compound solution diluted with DMSO solution to various concentrations (2 μL) was added, and lastly, [^125I]-MCH(4-19) diluted with assay buffer (25 μL) was added to each well. The reaction mixture was reacted at 25° C. for 1 hr with stirring, and the reaction mixture was filtered by suction using a glass filter plate (GF/C, PerkinElmer). The filter was washed 3 times with a wash solution (300 μL, 50 mM Tris-HCl buffer, pH 7.5). The glass filter plate was dried, a liquid scintillator was added at 25 μL/well, and the residual radioactivity was measured by TopCount (PerkinElmer). The binding inhibition rate of the test compound was calculated by the following formula. Binding inhibition (%)=(radioactivity upon addition of test compound and hot MCH−radioactivity upon addition of cold MCH and hot MCH solution)/(radioactivity upon addition of DMSO solution and hot MCH−radioactivity upon addition of cold MCH and hot MCH solution)×100

Series [2] deals with Dietary obese male F344/Jcl rats. The experiment in a line: Anorectic effect (food intake) in dietary obese male F344/Jcl rats. It counts as in vivo. The settings on record: Rattus norvegicus, 48 h; oral, 0.5% methylcellulose suspension (5 mg/mL) at 2 mL/kg, on start day and evening of next day; food intake from initial administration to 2 days later; vs control group; read-out: Food intake inhibition rate (%). The text has this:
Evaluation of Anorectic Effect Using Dietary Obese Male F344/Jcl Rats
Dietary obese male F344/Jcl rats (42-57-week-old) reared on a high-fat diet (Research Diets: D12451) from 5 weeks of age were used. From before the start of experiment, the rats were independently raised, a powder high-fat diet (Research Diets: D12451M) was given, tap water was orally administered for acclimation, and thereby the rats were habituated. The food intake from the evening of the day before the start of experiment to the next morning was measured, and the rats were grouped based on the food intake and the body weight of the previous day as indices. On the day of the start of experiment and in the evening of the next day, 0.5% methylcellulose solution was orally administered to the control group, and 0.5% methylcellulose suspension (5 mg/mL) of the test compound was orally administered to the compound administration group at 2 mL/kg (6 per group for both control group and compound administration group). The food intake from the initial administration to 2 days later was measured. The food intake inhibition rate of each compound administration group to the control group was calculated.

The target in series [3] is T1, human MCHR1. The series is described as follows: MCH receptor 1 antagonistic activity, Ca2+ mobilization assay in human MCHR1-expressing CHO cells. It counts as cell-based. The settings on record: test compound 0.1 μM; human MCHR1-expressing CHO cell; ligand MCH (4-19) peptide 20 nM; Fluo4 fluorescence; read-out: Inhibition rate (%). The protocol: Measurement of MCH Receptor 1 Antagonistic Activity of Test Compound Using Ca^2+ Mobilization Assay
CHO cell (CHO dhfr^−, clone #4) expressing a recombinant human MCHR1 gene for Ca^2+ mobilization assay was prepared by us. The cell was cultured in MEMα medium [445 mL of MEMα medium without nucleic acid and added with 5 mL of Penicillin-Streptomycin (Invitrogen) and 50 mL of dialyzed fetal bovine serum]. An integrated dispensing function fluorometer (CellLux, PerkinElmer) was used for Ca^2+ mobilization assay. CHO cells were sown in a 96 well plate (type 3904, Corning) with a black plate wall and clear well bottom at a density of 20000 cells/well, and cultured in an incubator for about 24 hr at 5% CO2, 37° C. The medium was removed, and the cells were washed with phosphate buffered saline (PBS). A Ca^2+ indicator dye reagent (DOJINDO LABORATORIES, Ca screening no-wash kit Fluo4) was added at 90 μL/well, and the dye was allowed to penetrate into the cell for 30 min in an incubator at 5% CO2, 37° C. The plate was set on a plate reader, a test compound solution diluted with an assay buffer [10 mM HEPES (pH 7.4), 1× assay buffer containing 0.1% BSA (DOJINDO LABORATORIES, attached to Ca screening no-wash kit Fluo4)] or DMSO solution was added at 10 μL/well, and ligand MCH (4-19) peptide (final concentration 20 nM) diluted with assay buffer or DMSO was added at 50 μL/well, during which changes in intracellular fluorescence were measured at 2 second intervals. The antagonistic activity of the test compound was calculated and shown as an inhibition rate (%) wherein the intracellular fluorescence activity resulting from the stimulation by the addition of ligand MCH (4-19) peptide was 100% and that of the well added with DMSO solution alone was 0%.
A general note: Calcium flux is commonly read through the fluorescence of an indicator in the cells.

T1 sequence (Q99705 whole entry): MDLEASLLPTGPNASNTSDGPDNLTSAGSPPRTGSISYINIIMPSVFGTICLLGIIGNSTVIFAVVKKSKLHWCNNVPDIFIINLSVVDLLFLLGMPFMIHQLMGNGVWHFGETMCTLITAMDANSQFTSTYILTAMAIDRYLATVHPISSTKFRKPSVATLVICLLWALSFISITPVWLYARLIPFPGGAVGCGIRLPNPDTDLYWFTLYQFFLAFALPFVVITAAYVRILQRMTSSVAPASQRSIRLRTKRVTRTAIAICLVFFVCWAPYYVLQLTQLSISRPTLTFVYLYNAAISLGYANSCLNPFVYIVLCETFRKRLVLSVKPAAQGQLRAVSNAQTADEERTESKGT

For orientation: inhibition means the drop in the measured response relative to a control, in per cent. By melting point is commonly meant the temperature of the solid-liquid transition. The molecule `Cn1c(CNC2CCS(=O)(=O)CC2)cc2cc(NC(=O)c3ccc(OCC4CC4)cc3)ccc21` [Example 6, 4-(cyclopropylmethoxy)-N-(2-{[(1,1-dioxidotetrahydro-2H-thiopyran-4-yl)amino]methyl}-1-methyl-1H-indol-5-yl)benzamide] yielded a melting point of 200 to 201 °C. Also, the inhibition at 0.1 µM on human MCHR1 [1] was determined as 82%.

With `Cn1c(CNCC(C)(C)C)cc2cc(NC(=O)c3ccc(OC[C@@H]4CCCO4)cc3)ccc21` [Example 15, N-(2-{[(2,2-dimethylpropyl)amino]methyl}-1-methyl-1H-indol-5-yl)-4-[(2S)-tetrahydrofuran-2-ylmethoxy]benzamide acetate], at human MCHR1 [1], the inhibition at 0.1 µM stood at 96%. In addition, in series [2], the inhibition in vivo at 10 mg/kg is 12.7%.

In the case of `Cn1c(CNCC2CCOCC2)cc2cc(NC(=O)c3ccc(OC[C@@H]4CCCO4)cc3)ccc21` [Example 17, N-(1-methyl-2-{[(tetrahydro-2H-pyran-4-ylmethyl)amino]methyl}-1H-indol-5-yl)-4-[(2S)-tetrahydrofuran-2-ylmethoxy]benzamide], the melting point lay within 157 to 158 °C. Also, on human MCHR1 [3], the inhibition at 0.1 µM came to 97%. Moreover, the inhibition at 0.1 µM at human MCHR1 [1] is 97%. Also, the inhibition in vivo at 10 mg/kg in series [2] came to 14.7%.

Molecule `Cn1c(CNCC2CCOC2)cc2cc(NC(=O)c3ccc(OC[C@@H]4CCCO4)cc3)ccc21` (stereo partly drawn) [Example 20, N-(1-methyl-2-{[(tetrahydrofuran-3-ylmethyl)amino]methyl}-1H-indol-5-yl)-4-[(2S)-tetrahydrofuran-2-ylmethoxy]benzamide] showed a melting point of 128 to 129 °C. Further, the inhibition at 0.1 µM at human MCHR1 [1] is 91%. Besides, the inhibition in vivo at 10 mg/kg in series [2] was found to be 20.3%.

Consider `Cc1c(NC(=O)c2ccc(OC[C@@H]3CCCO3)cc2)ccc2c1cc(CNCC(C)(C)C)n2C` [Example 51, N-(2-{[(2,2-dimethylpropyl)amino]methyl}-1,4-dimethyl-1H-indol-5-yl)-4-[(2S)-tetrahydrofuran-2-ylmethoxy]benzamide], for which the melting point was determined as 179 °C. Besides, the inhibition at 0.1 µM at human MCHR1 [1] is 92%.

Consider `Cc1c(NC(=O)c2ccc(OC[C@@H]3CCCO3)cc2)ccc2c1cc(CN[C@H]1CC[C@](C)(O)CC1)n2C` [Example 53-2, N-(2-{[(trans-4-hydroxy-4-methylcyclohexyl)amino]methyl}-1,4-dimethyl-1H-indol-5-yl)-4-[(2S)-tetrahydrofuran-2-ylmethoxy]benzamide], for which the melting point is 200 °C. Also, the inhibition at 0.1 µM on human MCHR1 [3] was found to be 96%. In addition, on human MCHR1 [1], the inhibition at 0.1 µM was 97%.

As to `Cc1c(NC(=O)c2ccc(OCC3CC3)cc2)ccc2cc(CNCC(C)(C)O)[nH]c12` [Example 63, 4-(cyclopropylmethoxy)-N-(2-{[(2-hydroxy-2-methylpropyl)amino]methyl}-7-methyl-1H-indol-6-yl)benzamide], the melting point stood at 170 °C. For the same molecule, the inhibition at 0.1 µM on human MCHR1 [1] came to 98%.

Consider `Cc1c(NC(=O)c2ccc(OCC3CC3)cc2)ccc2cc(CN[C@H]3CC[C@](C)(O)CC3)[nH]c12` [Example 67, 4-(cyclopropylmethoxy)-N-(2-{[(trans-4-hydroxy-4-methylcyclohexyl)amino]methyl}-7-methyl-1H-indol-6-yl)benzamide], for which the melting point lay in the range of 91 to 103 °C. In addition, on human MCHR1 [1], the inhibition at 0.1 µM came to 101%.

Turning to `Cc1c(NC(=O)c2ccc(OC[C@@H]3CCCO3)cc2)ccc2cc(CNCC3CCOCC3)[nH]c12` [Example 70, N-(7-methyl-2-{[(tetrahydro-2H-pyran-4-ylmethyl)amino]methyl}-1H-indol-6-yl)-4-[(2S)-tetrahydrofuran-2-ylmethoxy]benzamide], the melting point lay within 161 to 162 °C. Moreover, the inhibition at 0.1 µM on human MCHR1 [1] was determined as 95%.

`Cc1c(NC(=O)c2ccc(OC[C@@H]3CCCO3)cc2)ccc2cc(CN3CCCC3)[nH]c12` [Example 74, N-[7-methyl-2-(pyrrolidin-1-ylmethyl)-1H-indol-6-yl]-4-[(2S)-tetrahydrofuran-2-ylmethoxy]benzamide] came in with a melting point of 172 to 173 °C. For the same molecule, the inhibition at 0.1 µM on human MCHR1 [1] was determined as 91%.

Regarding `Cc1c(NC(=O)c2ccc(OC[C@@H]3CCCO3)cc2)ccc2cc(CN3CCC(C)(O)CC3)[nH]c12` [Example 75, N-{2-[(4-hydroxy-4-methylpiperidin-1-yl)methyl]-7-methyl-1H-indol-6-yl}-4-[(2S)-tetrahydrofuran-2-ylmethoxy]benzamide], the melting point is 169 °C. The inhibition at 0.1 µM on human MCHR1 [1] was determined as 94%. For the same molecule, the inhibition in vivo at 10 mg/kg in series [2] is 17.1%.

`Cc1c(NC(=O)c2ccc(OCC3CC3)cc2)ccc2cc(CNCC(C)(C)O)n(C)c12` [Example 78, 4-(cyclopropylmethoxy)-N-(2-{[(2-hydroxy-2-methylpropyl)amino]methyl}-1,7-dimethyl-1H-indol-6-yl)benzamide] gave a melting point of 180 °C. In addition, the inhibition at 0.1 µM at human MCHR1 [1] was 91%.

The molecule `Cc1c(NC(=O)c2ccc(OC[C@@H]3CCCO3)cc2)ccc2cc(CNCC3CCOCC3)n(C)c12` [Example 83, N-(1,7-dimethyl-2-{[(tetrahydro-2H-pyran-4-ylmethyl)amino]methyl}-1H-indol-6-yl)-4-[(2S)-tetrahydrofuran-2-ylmethoxy]benzamide] had a melting point of 197 to 198 °C. On human MCHR1 [3], the inhibition at 0.1 µM was 96%. Moreover, the inhibition at 0.1 µM at human MCHR1 [1] is 99%.

The molecule `Cc1c(CNCC(C)(C)C)[nH]c2c(F)c(NC(=O)c3ccc(OC[C@@H]4CCCO4)cc3)ccc12` [Example 103, N-(2-{[(2,2-dimethylpropyl)amino]methyl}-7-fluoro-3-methyl-1H-indol-6-yl)-4-[(2S)-tetrahydrofuran-2-ylmethoxy]benzamide] had a melting point of 159 to 160 °C. Moreover, the inhibition at 0.1 µM at human MCHR1 [1] was 100%.
